The results in this text go back to paper PMC11373624, “Development and preclinical characterization of a novel radiotheranostic EphA2-targeting bicyclic peptide” (Theranostics, 2024).

Numbered stars: 1 amine (or outer) side, 2 acyl side, 3 side chain; on linkers, the order of the positions; unused ones are H or OH. Bridge positions count the residues as written; N and C are the ends. Square brackets hold non-standard residues; d marks the D form. Peptide text beside a SMILES is read from it. * marks the point of attachment. DOTA = O=C(O)CN1CCN(CC(=O)O)CCN(CC(=O)*)CCN(CC(=O)O)CC1; TATA = O=C(CC[*:1])N1CN(C(=O)CC[*:2])CN(C(=O)CC[*:3])C1; Hyp = O=C(O)[C@@H]1C[C@@H](O)CN1; hArg = N=C(N)NCCCC[C@H](N)C(=O)O; Cba = N[C@@H](CC1CCC1)C(=O)O; βAla = NCCC(=O)O; Sar = CNCC(=O)O

As usually defined, the Kd is the concentration at which binding is half-saturated. A word on the AUC(0-inf): it is the area under the concentration-time curve extrapolated to infinity. Higher therefore signals more exposure. In general, AUC(0-t) refers to exposure summed from dosing to a finite time, without extrapolation to infinity. By Cmax is commonly meant the peak of the concentration-time curve. What is called Vd is the apparent volume that relates the amount in the body to the concentration in plasma or blood. Read a low Vd as confinement near the circulation. Broadly, the half-life is how long it takes for the measured level to halve. Broadly, the clearance is the rate of elimination divided by the concentration. Low readings indicate a low capacity for elimination, high ones a high capacity for elimination. The fraction unbound is free concentration divided by total concentration. Low readings indicate little free substance, high ones much free substance.

For one data set, the target named is T1, Human EphA1 (Homo sapiens, UniProt P21709).
T1 construct: purchased Sino Biological 15789-H02H
T1 sequence (P21709 26-547 limits assumed): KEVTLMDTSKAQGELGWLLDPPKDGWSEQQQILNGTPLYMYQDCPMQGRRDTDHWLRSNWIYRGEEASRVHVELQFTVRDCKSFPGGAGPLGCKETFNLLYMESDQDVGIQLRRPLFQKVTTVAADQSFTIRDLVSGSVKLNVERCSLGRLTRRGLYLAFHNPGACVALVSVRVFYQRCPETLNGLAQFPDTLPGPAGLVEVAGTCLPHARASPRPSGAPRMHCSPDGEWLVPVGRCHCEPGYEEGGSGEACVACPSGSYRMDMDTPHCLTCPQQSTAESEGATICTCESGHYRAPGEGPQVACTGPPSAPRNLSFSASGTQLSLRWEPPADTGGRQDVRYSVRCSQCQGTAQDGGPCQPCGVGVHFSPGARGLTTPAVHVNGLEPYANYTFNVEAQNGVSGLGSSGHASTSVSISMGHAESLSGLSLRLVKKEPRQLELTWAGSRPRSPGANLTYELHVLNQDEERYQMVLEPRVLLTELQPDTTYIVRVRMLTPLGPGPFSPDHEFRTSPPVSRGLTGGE
Kind of data set: SPR homologue panel, EphA1. Conditions: human EphA1, n=1; read-out: KD, no binding up to. The procedure:
(§1) The commercial source details of the recombinant proteins used in SPR were as follows: Human proteins: EphA1 (15789-H02H, Sino Biological), EphA3 (644-A3, R&D Systems), EphA6 (5606-A6, R&D Systems), EphA7 (6756-A7, R&D Systems). Mouse proteins: Mouse EphA2 was purchased from R&D Systems (Product number 639-A2). Mouse EphA2-Fc was resuspended as per manufacturer's recommendations and material was passed through a SuperdexS200 column to remove aggregates.
(§2) SPR experiments were performed on a Biacore 8K+ (Cytiva Life Sciences, USA) instrument, with methods matched for both human and mouse EphA2 protein. Protein was captured on to a Cytiva NTA sensor chip (Cytiva Life Sciences), via the expressed His-tag; this was followed by primary amine coupling chemistry to covalently immobilize the protein to the chip at 25°C. Initially the surface was injected with 0.5 mM NiCl2 for 2 minutes, followed by activation of the carboxymethyl dextran surface for 7 minutes using an injection of a 1:1 ratio of 0.4 M 1-ethyl-3-(3-dimethylaminopropyl) carbodiimide hydrochloride (EDC)/0.1 M N-hydroxy succinimide (NHS) at a flow rate of 10 µL/min.
(§3) Peptide was prepared in PBS/0.05% Tween 20 with a final DMSO concentration of 0.5%. The top peptide concentration was 100 or 500 nM and 5 further 3-fold dilutions. […]

The next data set addresses Human EphA4 (Homo sapiens, UniProt P54764). The experiment in a line: SPR homologue panel, EphA4. The settings on record: human EphA4, n=1; read-out: KD, no binding up to.
A further data set in a line: in vivo. The settings on record: male, CD-1 (ICR), mouse, iv, 1 mg/kg.
The next data set deals with T2, Human EphA3 (Homo sapiens, UniProt P29320).
T2 construct: purchased R&D Systems 644-A3
T2 sequence (P29320 with tags, fused parts or gaps limits assumed): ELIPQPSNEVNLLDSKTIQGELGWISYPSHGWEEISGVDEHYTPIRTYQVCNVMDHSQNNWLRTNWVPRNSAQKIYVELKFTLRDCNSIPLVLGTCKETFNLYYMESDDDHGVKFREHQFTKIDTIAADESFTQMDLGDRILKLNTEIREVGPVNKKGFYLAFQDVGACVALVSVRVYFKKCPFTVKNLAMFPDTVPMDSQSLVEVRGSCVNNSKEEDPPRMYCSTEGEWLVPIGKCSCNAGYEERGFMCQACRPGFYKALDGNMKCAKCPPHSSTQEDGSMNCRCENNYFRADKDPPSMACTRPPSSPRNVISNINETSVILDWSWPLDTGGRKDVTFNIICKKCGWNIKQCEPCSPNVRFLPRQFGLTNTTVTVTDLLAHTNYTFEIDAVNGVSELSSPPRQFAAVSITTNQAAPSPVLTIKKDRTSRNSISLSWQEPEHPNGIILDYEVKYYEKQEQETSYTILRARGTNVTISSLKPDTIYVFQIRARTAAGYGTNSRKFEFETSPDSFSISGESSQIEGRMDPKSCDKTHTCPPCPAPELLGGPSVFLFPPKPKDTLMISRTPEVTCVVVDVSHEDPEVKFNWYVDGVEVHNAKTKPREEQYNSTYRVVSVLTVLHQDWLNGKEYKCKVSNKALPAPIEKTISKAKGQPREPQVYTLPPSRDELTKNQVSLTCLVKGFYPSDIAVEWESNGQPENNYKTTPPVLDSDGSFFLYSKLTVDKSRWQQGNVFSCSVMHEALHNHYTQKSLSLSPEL
Kind of data set: SPR homologue panel, EphA3. The settings on record: human EphA3, n=1; read-out: KD, no binding up to. The procedure: as §1, §2, §3

A short description of the next data set: in vitro. It is filed as in vitro ADME. The settings on record: plasma. The procedure: To determine binding to plasma proteins, BCY18469 was labeled with ^68Ga (apparent molar activity 1 GBq/µmol). Thereafter, 10 µL of the labeling mixture were added to 100 µL of mouse or human plasma (mouse: BioIVT, United Kingdom, human: Sigma Aldrich, Germany). The mixture was left for 15 min at room temperature. Afterwards, the plasma was loaded into an ultrafiltration device (Amicon Ultra 0.5ml - 30 kDa, Merck, Germany) and centrifuged at 14,000 rpm for 30 min at r.t. The filtrate and the membrane were measured in a gamma counter (Wizard2, Perkin Elmer, Germany). The amount of plasma-bound compound was calculated based on the counts in the […] relative to the total counts (filtrate + membrane).

For the next data set, the target named is T3, Human EphA7 (Homo sapiens, UniProt Q15375).
T3 construct: purchased R&D Systems 6756-A7
T3 sequence (Q15375 28-998): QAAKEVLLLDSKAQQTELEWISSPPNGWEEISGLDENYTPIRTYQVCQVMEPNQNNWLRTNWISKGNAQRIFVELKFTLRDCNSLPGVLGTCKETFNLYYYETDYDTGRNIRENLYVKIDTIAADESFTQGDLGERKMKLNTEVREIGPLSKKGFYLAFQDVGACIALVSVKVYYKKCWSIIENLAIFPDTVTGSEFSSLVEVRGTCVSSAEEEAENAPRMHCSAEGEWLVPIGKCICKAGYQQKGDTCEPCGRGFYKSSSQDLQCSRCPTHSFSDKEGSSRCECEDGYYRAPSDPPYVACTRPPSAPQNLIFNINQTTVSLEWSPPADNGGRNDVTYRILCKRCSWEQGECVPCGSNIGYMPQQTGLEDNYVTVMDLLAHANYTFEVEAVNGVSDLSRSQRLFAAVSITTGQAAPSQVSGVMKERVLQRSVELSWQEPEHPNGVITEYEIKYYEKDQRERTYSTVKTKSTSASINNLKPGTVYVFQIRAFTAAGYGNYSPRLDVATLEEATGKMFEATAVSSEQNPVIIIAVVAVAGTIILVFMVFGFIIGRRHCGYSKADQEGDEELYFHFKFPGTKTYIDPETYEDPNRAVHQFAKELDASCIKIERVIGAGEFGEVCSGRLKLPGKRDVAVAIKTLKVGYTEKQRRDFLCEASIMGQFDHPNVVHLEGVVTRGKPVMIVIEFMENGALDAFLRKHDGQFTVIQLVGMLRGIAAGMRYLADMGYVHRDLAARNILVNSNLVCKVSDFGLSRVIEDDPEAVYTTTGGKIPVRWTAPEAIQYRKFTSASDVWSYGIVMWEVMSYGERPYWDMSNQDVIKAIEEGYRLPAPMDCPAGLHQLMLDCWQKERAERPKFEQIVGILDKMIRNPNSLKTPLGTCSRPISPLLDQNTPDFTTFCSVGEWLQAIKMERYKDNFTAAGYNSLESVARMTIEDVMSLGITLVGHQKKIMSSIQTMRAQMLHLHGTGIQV
Kind of data set: SPR homologue panel, EphA7. The settings on record: human EphA7, n=1; read-out: KD, no binding up to. The procedure: as §1, §2, §3

Sequence of Human EphA4 (P54764 20-986): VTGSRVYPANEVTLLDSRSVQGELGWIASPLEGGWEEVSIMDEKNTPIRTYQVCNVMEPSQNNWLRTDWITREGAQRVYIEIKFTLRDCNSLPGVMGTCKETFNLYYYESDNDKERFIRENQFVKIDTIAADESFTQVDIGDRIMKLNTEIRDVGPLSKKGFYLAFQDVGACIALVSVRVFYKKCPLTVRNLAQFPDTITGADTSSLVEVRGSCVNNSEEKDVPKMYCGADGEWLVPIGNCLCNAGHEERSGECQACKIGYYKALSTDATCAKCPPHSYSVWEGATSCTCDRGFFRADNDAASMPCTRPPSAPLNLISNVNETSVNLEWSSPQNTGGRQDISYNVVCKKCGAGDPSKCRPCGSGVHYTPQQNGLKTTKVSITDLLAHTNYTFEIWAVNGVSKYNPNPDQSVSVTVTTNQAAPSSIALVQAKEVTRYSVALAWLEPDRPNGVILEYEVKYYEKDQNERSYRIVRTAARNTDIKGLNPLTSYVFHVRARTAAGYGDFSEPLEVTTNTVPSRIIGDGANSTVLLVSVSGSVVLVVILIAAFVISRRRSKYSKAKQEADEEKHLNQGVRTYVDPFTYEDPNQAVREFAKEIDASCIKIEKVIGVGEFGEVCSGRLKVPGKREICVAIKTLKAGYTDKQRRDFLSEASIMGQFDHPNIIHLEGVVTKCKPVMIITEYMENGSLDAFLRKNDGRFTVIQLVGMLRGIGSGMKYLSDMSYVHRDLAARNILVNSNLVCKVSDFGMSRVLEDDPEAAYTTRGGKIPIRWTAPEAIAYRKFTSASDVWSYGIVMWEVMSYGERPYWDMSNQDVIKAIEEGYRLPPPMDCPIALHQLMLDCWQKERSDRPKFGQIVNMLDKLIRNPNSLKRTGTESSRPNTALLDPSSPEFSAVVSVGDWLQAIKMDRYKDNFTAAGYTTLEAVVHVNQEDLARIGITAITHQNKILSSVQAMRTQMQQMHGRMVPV
Method for in vivo: In vivo pharmacokinetic studies were conducted in male CD-1 (ICR) mice, 7-9 weeks of age. […] Serial venous blood samples were taken at 5 min, 15 min, 30 min, 45 min, 1 h, 2 h and 4 h post injection. Samples were immediately transferred into low-binding microcentrifuge tubes containing 2 μL K2-EDTA (0.5 M) as anti-coagulant and kept on ice until processed by centrifugation at 4°C, 3200 g for 10 min. The resulting plasma was transferred into low-binding tubes and the protein precipitated by addition of methanol containing 0.5% Triton X-100 and internal standards (100 ng/mL each of labetalol, tolbutamide, verapamil, dexamethasone, glyburide and celecoxib). Samples were centrifuged at 4°C, 12000 g for 15 min and the supernatant removed, frozen over dry ice and stored at -70°C until LC-MS/MS analysis (Supplementary Materials - Methods). A calibration curve and quality control samples were prepared in the same matrix. Pharmacokinetic parameters were derived from noncompartmental analysis using the intravenous-noncompartmental model 201 (IV bolus input) in Phoenix WinNonlin version 8.3.5 (Certara, USA).

As to `CC(C)C[C@@H]1NC(=O)[C@@H]2CSCCC(=O)N3CN(CN(C3)C(=O)CCSC[C@H](NC(=O)[C@H](CC(=O)O)NC(=O)[C@H](CCCCNC(=N)N)NC(=O)[C@H](C)NC(=O)CN(C)C(=O)CN(C)C(=O)CN(C)C(=O)CN(C)C(=O)CN(C)C(=O)CN(C)C(=O)CN(C)C(=O)CN(C)C(=O)CN(C)C(=O)CN(C)C(=O)CCNC(=O)CN3CCN(CC(=O)O)CCN(CC(=O)O)CCN(CC(=O)O)CC3)C(=O)N3C[C@H](O)C[C@H]3C(=O)N[C@@H](CC3CCC3)C(=O)N[C@@H](C(C)C)C(=O)N[C@@H](CC(N)=O)C(=O)N3CCC[C@H]3C(=O)N[C@@H](CC(C)C)C(=O)N2)C(=O)CCSC[C@@H](C(N)=O)NC(=O)[C@H](CCCCNC(=N)N)NC(=O)[C@H](Cc2c[nH]c3ccccc23)NC(=O)[C@@H](CC(=O)O)NC(=O)[C@@H]2CCCN2C(=O)[C@H](Cc2c[nH]cn2)NC1=O` [BCY18469, [-DOTA]-[B-Ala]-[Sar10]-Ala-[HArg]-Asp-Cys-[HyP]-[Cba]-Val-Asn-Pro-Leu-Cys-Leu-His-Pro-[dAsp]-Trp-[HArg]-Cys-CONH2] ({DOTA-βAla}-[Sar][Sar][Sar][Sar][Sar][Sar][Sar][Sar][Sar][Sar]A[hArg]DC[Hyp][Cba]VNPLCLHP[dD]W[hArg]C-NH2; linker 14-21-28 via TATA), the Kd on Human EphA1 was above 5 µM. The equilibrium dissociation constant (Kd) on Human EphA4 was above 5 µM. In the data set “in vivo”, this molecule showed an AUC(0-inf) of 701 ng·h/mL, an AUC(0-t) of 700 ng·h/mL, a Cmax of 3320 ng/mL and a Vd of 0.39 L/kg. In addition, in the data set “in vivo”, the half-life is 14.4 min. The clearance in “in vivo” (CLp) was 23.9 mL/min/kg. The dissociation constant Kd at Human EphA3 is above 5 µM. The same molecule showed a fraction unbound at 15 min in the data set “in vitro” (human, Plasma protein binding (% bound peptide)) of 0.567. The molecule further gave a fraction unbound at 15 min in the data set “in vitro” (mouse) of 0.489. Further, the dissociation constant (Kd) on Human EphA7 is above 5 µM.
